The test system of test [1] is primary human T-cells. Briefly: IL2 secretion measurements (24 h, CD3-stimulated T-cells, PBS counter screen). It counts as cell-based. To be noted: for Emax IL2 (% activation): CD3 condition, normalised to DMSO (neutral) and 20 μM reference compound A1 = 100%; for pEC50: Homo sapiens, T-cell, CD3-stimulated primary human T-cells, IL2 secretion, fitted sigmoidal curve, read-out: Tcell IL2 CD3 EC50. As for the experimental part:
(§1) As readouts for T-cell activation, 1L2 secretion after 24 hours and proliferation after 5 days was measured. Increases in IL2 secretion and proliferation upon compound treatment were assessed as the % of the maximum of reference compound A1. WO 2016/139181 discloses reference compound A1 as example 70. As a counter screen and to make sure that no unwanted TCR-independent activation was triggered, PBS conditions were run for all compounds.
Expanded primary human T-cells were thawed and cultured in RPMI 1640 (Gibco, #61870-010)+5% human serum (HS, Sigma, #H3667)+1 mM Sodium Pyruvate (Gibco, #11360-039)+50 μM 2-mercaptoethanol (Gibco, #31350-010) and 1× Pen-Strep (Life Technologies, #15140122) medium at density of 2 Mio/ml for 3 hours in 5% CO2, 37° C. and 95% humidity. For coating of plates, […] or PBS++ with CD3 antibody (concentration depending on donor and determined by CD3 titrations) was added 100 μl/well to Poly-D Lysine coated 96-well plates. Plates were sealed and incubated at room temperature for 3 hours on a table-top rocking platform. After incubation, plates were washed once with PBS−− and filled with 40 μl/well culture medium only. Compounds were then added (see next section) to medium only plates. After 3 hours of culturing the T-cells, cells were filtered through a cell strainer (Miltenyi Biotech, #130-041-407), counted again and concentration was adjusted to 1.25 Mio/ml.
Cells were then seeded 80 μl/well to the 40 μl/well including dispensed compounds according to plate layout. By adding cells, compounds were further diluted 1:3, and resulting in 100 k cells/120 μl/well. After 24 hours 40 μl of supernatant was collected carefully from the top while not disturbing the cells and transferred into a round bottom 96 well plate. Collected and frozen supernatant was used for detection of IL2 using the IL-2 Human ProQuantum Immunoassay Kit (Invitrogen) or using the Human IL-2 ELISA Kit (Thermo Fisher).
(§2) Compounds were added in a 5 or 6 pt dose response with the Tecan D300e Digital Dispenser, all conditions 3 times more concentrated than the end-concentration, since cells are added afterwards (80 μl cells to 40 μl prepared medium with treatment). The DR was starting at 20 μM or 10 μM final top concentration and a dilution factor of 3.333. The positive control was the reference compound A1 that was added in a dose response as well, additionally to 3 wells of only 20 μM representing the positive stimulator control. All wells were normalized with DMSO to a final concentration of 0.6% (0.2% end-concentration).
The immunoassay is done following the manufacturer's manual (Invitrogen, #A35603). Additional information: For the immunoassay, MicroAmp™ EnduraPlate™ Optical 384-Well plates are used. Frozen supernatant is thawed and centrifuged for 5 minutes at 1000×g, both steps at 4° C. After centrifugation, required sample amount is taken from the top, and in a separate LightCycler V-bottom plate (working plate) diluted with assay dilution buffer, dilution factor depending on the PBS or CD3 condition but at least 1:3. IL-2 standard and blanks are prepared in the same V-bottom plate, standard with a range of 0.0128-5000 pg/ml (extended version). After preparation, 5 μl of sample dilutions or standard/blanks are transferred to the optical 384-well plate (assay plate) and the 10 μl reaction protocol is being followed. For measurement, the QuantStudio 12K Flex system is used. Raw data is extracted and IL-2 concentrations are calculated with the Thermo Fisher online app (apps.thermofisher.com/apps/proquantum).
ELISA is done following the manufacturer's manual (Thermo Fisher Scientific, #88-7025-88). Additional information: For the ELISA Nunc MaxiSorp 96 well plates are used. Frozen supernatant is thawed and centrifuged for 5 minutes at 1000×g, both steps at 4° C. […]

Test [2] concerns primary human T-cells. Briefly: Proliferation assay (5 days, CellTiter-Glo, CD3-stimulated T-cells). In kind it is cell-based. As to conditions: for Emax proliferation (% activation): CD3 condition, normalised to DMSO (neutral) and 20 μM reference compound A1 = 100%; for pEC50: Homo sapiens, T-cell, 120 h, CD3-stimulated primary human T-cells, 5 days, CellTiter-Glo, fitted sigmoidal curve, read-out: Tcell Proliferation CD3 EC50. As for the experimental part: as §1
Expanded primary human T-cells are thawed and cultured in RPMI 1640 (Gibco, #61870-010)+5% human serum (HS, Sigma, #H3667)+1 mM Sodium Pyruvate (Gibco, #11360-039)+50 μM 2-mercaptoethanol (Gibco, #31350-010) and 1× Pen-Strep (Life Technologies, #15140122) medium at density of 2 Mio/ml for 3 hours in 5% CO2, 37° C. and 95% humidity. For coating of plates, PBS++ only or PBS++ with CD3 antibody (concentration depending on donor and determined by CD3 titrations) is added 100 μl/well to Poly-D Lysine coated 96-well plates. Plates are sealed and incubated at room temperature for 3 hours on a table-top rocking platform. After incubation, plates are washed once with PBS−− and filled with 40 μl/well culture medium only. Compounds are then added (see next section) to medium only plates. After 3 hours of culturing the T-cells, cells are filtered through a cell strainer (Miltenyi Biotech, #130-041-407), counted again and concentration is adjusted to 1.25 Mio/ml.
Cells are then seeded 80 μl/well to the 40 μl/well including dispensed compounds according to plate layout. By adding cells, compounds are further diluted 1:3, and resulting in 100 k cells/120 μl/well. After 48 hours 40 μl of supernatant is collected carefully from the top while not disturbing the cells. Cells are assessed for proliferation 5 days later by measuring […] using CellTiterGlo (Promega).
as §2
After 5 days, for detection of ATP which is directly proportional to the number of cells present per well, the CellTiter-Glo® 2.0 Reagent is used. After visual control for toxicity or precipitations of the tested compounds, the plates are equilibrated to room temperature for 45 minutes. CellTiter-Glo® 2.0 Reagent is equilibrated to room temperature as well. After equilibration, an equal amount of CellTiter-Glo reagent is added to the cells (80 μl/well) with an electronic multichannel pipette. Plates are placed on a rocking platform for 15 minutes at room temperature. After incubation, the bottom of the plates is sealed with backing tape. Luminescence is measured with PHERAstar FSX (interval time 0.5 sec, gain 3000, focal height 15 mm) and exported as CSV file for analysis in Genedata screener.
CD3 and PBS plates were analysed separately in Genedata Screener using Roche Normalization PCT_POS_CTRL with DMSO set as Neutral Control and 20 μM of the reference compound A1 set as Stimulator Control/100%.
For CD3 conditions EC50 and Emax of the fitted sigmoidal curve were reported. If no curve could be fitted, the EC50 was reported as blank field and the Emax was based on individual data points. […] Compounds which activate unstimulated cells (see IL2 measurements) or compounds which negatively affected viability were flagged.
(In general: ATP-based viability assays read luminescence as a measure of living cells.)

Structures are written as SMILES. pEC50: −log10 of the molar value.

For `N[C@H]1CS(=O)(=O)c2ccc(-c3nnc(N4CCC(F)(F)CC4)o3)cc2N(Cc2ccc(-c3noc(C4CC4)n3)cc2)C1=O` [Example 69, (3R)-3-amino-5-[[4-(5-cyclopropyl-1,2,4-oxadiazol-3-yl)phenyl]methyl]-7-[5-(4,4-difluoro-1-piperidyl)-1,3,4-oxadiazol-2-yl]-1,1-dioxo-2,3-dihydro-1λ^6,5-benzothiazepin-4-one], in the test with primary human T-cells [1], the “Emax IL2 (% activation)” value was determined as 83 % activation and the pEC50 was 6.35. Also, in the test on primary human T-cells [2], the “Emax proliferation (% activation)” value is 125 % activation and the pEC50 is 6.39.

On to `N[C@H]1CS(=O)(=O)c2ccc(-c3nnc(N4CCC(F)(F)CC4)o3)cc2N(Cc2ccc(-c3nnc(C(F)F)o3)cc2)C1=O` [Example 70, (3R)-3-amino-5-[[4-[5-(difluoromethyl)-1,3,4-oxadiazol-2-yl]phenyl]methyl]-7-[5-(4,4-difluoro-1-piperidyl)-1,3,4-oxadiazol-2-yl]-1,1-dioxo-2,3-dihydro-1λ^6,5-benzothiazepin-4-one], for which, in the test with primary human T-cells [1], the “Emax IL2 (% activation)” value worked out at 43 % activation and the pEC50 was less than 5.00. Besides, in the test with primary human T-cells [2], the “Emax proliferation (% activation)” value turned out to be 76 % activation and the pEC50 is 5.56.

Regarding `CC(C)(C)c1nnc(-c2ccc3c(c2)N(Cc2ccc(-c4nc(C(F)(F)F)no4)cc2)C(=O)[C@@H](N)CS3(=O)=O)o1` [Example 26, (3R)-3-amino-7-(5-tert-butyl-1,3,4-oxadiazol-2-yl)-1,1-dioxo-5-[[4-[3-(trifluoromethyl)-1,2,4-oxadiazol-5-yl]phenyl]methyl]-2,3-dihydro-1λ^6,5-benzothiazepin-4-one], in the test on primary human T-cells [1], the “Emax IL2 (% activation)” value is given as 155 % activation and the pEC50 is 5.80. Moreover, in the test on primary human T-cells [2], the “Emax proliferation (% activation)” value is listed as 184 % activation and the pEC50 was 6.52.

Regarding `CC(C)(C)c1nnc(-c2ccc3c(c2)N(Cc2ccc(-c4cc(C(F)(F)F)on4)cc2)C(=O)[C@@H](N)CS3(=O)=O)o1` [Example 30, (3R)-3-amino-7-(5-tert-butyl-1,3,4-oxadiazol-2-yl)-1,1-dioxo-5-[[4-[5-(trifluoromethyl)isoxazol-3-yl]phenyl]methyl]-2,3-dihydro-1λ^6,5-benzothiazepin-4-one], in the test with primary human T-cells [1], the “Emax IL2 (% activation)” value turned out to be 117 % activation and the pEC50 was 5.45. In addition, in the test on primary human T-cells [2], the “Emax proliferation (% activation)” value is reported as 139 % activation and the pEC50 is 5.36.

On to `NC(c1nnc(-c2ccc3c(c2)N(Cc2ccc(-c4ccc(C(F)(F)F)cc4)cc2)C(=O)[C@@H](N)CS3(=O)=O)o1)C(F)(F)F` (stereo partly drawn) [Example 151, (3R)-3-amino-7-[5-(1-amino-2,2,2-trifluoro-ethyl)-1,3,4-oxadiazol-2-yl]-1,1-dioxo-5-[4-[4-(trifluoromethyl)phenyl]phenyl] methyl 1-2,3-dihydro-1λ^6,5-benzothiazepin-4-one], for which, in the test with primary human T-cells [1], the “Emax IL2 (% activation)” value is on record as 65 % activation and the pEC50 was 6.04. For the same compound, in the test on primary human T-cells [2], the “Emax proliferation (% activation)” value is 105 % activation and the pEC50 was 5.73.

With `N[C@H]1CS(=O)(=O)c2ccc(-c3nnc(C4(N)CCCCC4)o3)cc2N(Cc2ccc(-c3noc(C4CCC(F)(F)C4)n3)cc2)C1=O` (stereo partly drawn) [Example 44, (3R)-3-amino-7-[5-(1-aminocyclohexyl)-1,3,4-oxadiazol-2-yl]-5-[[4-[5-(3,3-difluorocyclopentyl)-1,2,4-oxadiazol-3-yl]phenyl]methyl]-1,1-dioxo-2,3-dihydro-1λ^6,5-benzothiazepin-4-one], in the test with primary human T-cells [1], the “Emax IL2 (% activation)” value was 112 % activation and the pEC50 is 5.98. Moreover, in the test on primary human T-cells [2], the “Emax proliferation (% activation)” value amounted to 124 % activation and the pEC50 is 6.13.

These data come from patent publication US20260138976A1 (Hoffmann-La Roche Inc., priority 2022, published 2026).
